Here are results for 4 molecules from PMC3914206.

SMILES strings stand for the structures.

Common to all, as to type: binding
The target in experiment [1] is T1, panel of 442 kinases (Homo sapiens, UniProt Q9H1R3).
T1 construct: purchased KINOMEscan
To be noted: Compound Concentration 10 µM. The source says: (§1) We assessed the selectivity of members of this scaffold using the KINOMEscan methodology across a near comprehensive panel of 442 kinases [[18,27]].

Experiment [2] concerns the target T2, panel of 442 kinases (Homo sapiens, UniProt P42681).
T2 construct: purchased KINOMEscan
T2 sequence (P42681 1-527): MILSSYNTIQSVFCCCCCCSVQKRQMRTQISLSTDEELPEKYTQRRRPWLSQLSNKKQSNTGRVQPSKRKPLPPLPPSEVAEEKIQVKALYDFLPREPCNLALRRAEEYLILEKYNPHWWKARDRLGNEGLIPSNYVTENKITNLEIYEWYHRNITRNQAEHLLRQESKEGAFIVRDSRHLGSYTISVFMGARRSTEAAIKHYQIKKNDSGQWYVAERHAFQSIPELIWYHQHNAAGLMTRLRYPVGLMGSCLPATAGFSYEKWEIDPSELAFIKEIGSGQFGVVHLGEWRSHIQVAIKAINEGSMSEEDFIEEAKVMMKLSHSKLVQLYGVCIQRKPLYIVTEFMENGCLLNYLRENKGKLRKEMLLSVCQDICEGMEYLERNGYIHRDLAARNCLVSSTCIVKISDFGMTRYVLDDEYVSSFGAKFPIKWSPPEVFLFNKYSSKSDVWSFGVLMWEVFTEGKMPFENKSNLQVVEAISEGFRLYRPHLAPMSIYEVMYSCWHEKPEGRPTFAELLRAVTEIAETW
The note with it: kinase TXK; compound concentration 10 µM.
From the text: as §1

The target in experiment [3] is T3, panel of 442 kinases (Homo sapiens, UniProt O15075).
T3 construct: purchased KINOMEscan
To be noted: Compound Concentration 10 µM.
From the text: as §1

T3 sequence (O15075 whole entry): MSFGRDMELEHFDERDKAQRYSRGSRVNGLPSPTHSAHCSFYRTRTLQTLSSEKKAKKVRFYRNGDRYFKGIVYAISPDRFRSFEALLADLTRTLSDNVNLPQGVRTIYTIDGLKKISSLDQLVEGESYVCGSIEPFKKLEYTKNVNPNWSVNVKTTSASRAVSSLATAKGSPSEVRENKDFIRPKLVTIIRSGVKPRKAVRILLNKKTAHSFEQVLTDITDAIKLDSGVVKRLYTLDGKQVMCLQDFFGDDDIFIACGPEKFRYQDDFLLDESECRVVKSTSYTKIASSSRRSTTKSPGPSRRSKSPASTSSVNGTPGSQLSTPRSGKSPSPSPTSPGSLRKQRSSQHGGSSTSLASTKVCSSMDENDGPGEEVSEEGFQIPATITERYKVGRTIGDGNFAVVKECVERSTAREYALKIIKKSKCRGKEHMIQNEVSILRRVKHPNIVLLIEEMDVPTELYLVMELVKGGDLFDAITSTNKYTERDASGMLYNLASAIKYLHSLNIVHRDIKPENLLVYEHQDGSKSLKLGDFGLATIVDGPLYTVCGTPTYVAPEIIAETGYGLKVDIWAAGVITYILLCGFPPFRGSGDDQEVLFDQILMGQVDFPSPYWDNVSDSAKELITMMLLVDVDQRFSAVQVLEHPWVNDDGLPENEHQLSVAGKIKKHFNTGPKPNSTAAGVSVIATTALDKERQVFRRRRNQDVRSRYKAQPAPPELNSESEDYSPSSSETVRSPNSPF
T1 sequence (Q9H1R3 whole entry): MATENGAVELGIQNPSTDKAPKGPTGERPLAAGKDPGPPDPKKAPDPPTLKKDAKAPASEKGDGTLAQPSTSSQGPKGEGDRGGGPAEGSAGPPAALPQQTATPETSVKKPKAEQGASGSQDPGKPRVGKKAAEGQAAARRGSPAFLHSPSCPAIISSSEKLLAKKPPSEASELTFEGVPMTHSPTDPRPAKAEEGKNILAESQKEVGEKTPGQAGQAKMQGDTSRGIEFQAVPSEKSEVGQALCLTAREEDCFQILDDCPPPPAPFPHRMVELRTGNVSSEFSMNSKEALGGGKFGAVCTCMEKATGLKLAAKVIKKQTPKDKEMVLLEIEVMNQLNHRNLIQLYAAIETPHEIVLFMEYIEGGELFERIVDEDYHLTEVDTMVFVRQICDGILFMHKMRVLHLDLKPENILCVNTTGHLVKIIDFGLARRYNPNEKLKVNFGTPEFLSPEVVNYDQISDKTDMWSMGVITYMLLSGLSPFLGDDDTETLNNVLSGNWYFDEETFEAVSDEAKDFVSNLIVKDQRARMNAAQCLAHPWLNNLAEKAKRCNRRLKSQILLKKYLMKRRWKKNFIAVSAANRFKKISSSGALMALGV

Take `CCOc1cc(C(=O)N2CCC(N3CCN(C)CC3)CC2)ccc1Nc1ncc2c(n1)N(C1CCCC1)c1ccccc1C(=O)N2C` [Compound 26]: the “KINOMEscan: MYLK2” value in experiment [1] came to 100. Besides, in experiment [2], the “% Ctrl, TXK” value is on record as 100 % Ctrl.

With `COc1cc(C(=O)N2CCC(N3CCN(C)CC3)CC2)ccc1Nc1ncc2c(n1)N1CCc3cccc(c31)C(=O)N2C` [Compound 24], the “KINOMEscan: MYLK2” value in experiment [1] amounted to 85. The “KINOMEscan: DCAMKL1” value in experiment [3] was 6.4. Moreover, the “% Ctrl, TXK” value in experiment [2] was 93 % Ctrl.

With `COc1cc(C(=O)N2CCC(N3CCN(C)CC3)CC2)ccc1Nc1ncc2c(n1)N(C)c1ccccc1C(=O)N2C` [15 (LRRK2-IN-1)], the “KINOMEscan: MYLK2” value in experiment [1] is recorded as 98. Besides, the “KINOMEscan: DCAMKL1” value in experiment [3] came out at 4.2. Moreover, the “% Ctrl, TXK” value in experiment [2] worked out at 91 % Ctrl.

Consider `COc1cc(C(=O)N2CCC(N3CCN(C)CC3)CC2)ccc1Nc1ncc2c(n1)N(C1CCCC1)c1ccccc1C(=O)N2C` [Compound 25, 11-cyclopentyl-2-((2-methoxy-4-(4-(4-methylpiperazin-1-yl)piperidine-1-carbonyl)phenyl)amino)-5-methyl-5H-benzo[e]pyrimido[5,4-b][1,4]diazepin-6(11H)-one], for which, in experiment [1], the “KINOMEscan: MYLK2” value worked out at 100. Also, the “KINOMEscan: DCAMKL1” value in experiment [3] was determined as 8.4. The “% Ctrl, TXK” value in experiment [2] is reported as 95 % Ctrl.
